Measurements published in patent US20230096528A1, “Pharmaceutical Composition for Treatment or Prevention of Multiple Inflammatory disorders” (priority 2019, published 2023).

How the values were obtained:
[1] = tested on: DSS-induced colitis in mice; assay: Dextran sulfate sodium (DSS)-induced colitis in mice (Example 3); type: in vivo
Source text: This example provides the results of an in vivo study in a dextran sulfate sodium (DSS)-induced colitis in mice model. Inflammatory bowel diseases (IBD), mainly comprising ulcerative colitis and Crohn's Disease, are complex and multifactorial diseases with unknown etiology. To study human IBD mechanistically, a number of murine models of colitis have been developed. These models are tools to decipher underlying mechanisms of IBD pathogenesis as well as to evaluate potential therapeutics. […] Moreover, many existing IBD-approved drugs have been studied in this model to allow a comparison of new potential drug compounds as compared with existing drugs with approved IBD indications. […] mice were divided into 5 groups of 3-10 mice, provided with standard mouse chow diet ad libitum, and housed up to 5 per cage. Dexamethasone 21-phosphate disodium salt (DMS; Alfa Aesar Catalog #J64083-1G, Lot R02F035) (was used as a positive control. Hemoccult kits were obtained from Beckman (Hemoccult SENSA kit). Dextran sodium sulfate (DSS) reagent grade (MPI Catalog #160110, Lot #6046H, MW 36,000-50,000, CAS 9011-18-1) was supplemented in the water of certain groups to induced IBD-like symptoms. On day −3 treatment began prior to DSS delivery. On day 1 all mice were pre-weighed and given fresh 4-5% DSS in water every day for 5 days and water is then given for the remainder of the study to elicit disease. An additional control group was given water (no DSS) for the duration of the study (10 days). Body weight was measured daily, fecal blood status (hemoccult) was measured 3× per week, fecal consistency 3× per week and general health determined daily. Mice were sacrificed on day 10 and serum obtained for cytokine analysis and colon length and weight determined. There were two control groups of water only and DSS without drug treatment. There were two treatment groups at 69.3 mg/kg (n=10) bid and 23.1 mg/kg bid (n=10).

[2] = tested on: microbial populations in a nonalcoholic steatohepatitis (NASH) mouse model; assay: Microbiome study in NASH mouse model on AMLN diet (Example 4); type: in vivo, C57BL/6 mice
Source text: There were changes in the microbiome in a mice model using a high-fat diet after 4 weeks of treatment with and without administering DA orally. The high fat diet itself induced extensive changes in the microbial populations in all groups. Importantly though, there was a pronounced difference between the DA treatment group and the control group at week 4.
Classifications of the different organisms that changed in the control and treatment groups at 4 weeks and observed extensive changes in the primary or dominant phylum groups of bacteria, as well as on a family and genus level were made. […] The diversity at 4 weeks dropped over the study course in both control and treatment group due to dietary impact.
The genetic potential of treatment-induced changes in relation to predicted physiological and metabolic pathways were aligned with observed benefits of treatment with DA with regards to attenuating inflammation and metabolic syndrome. The majority of the pathways being impacted were directly related to a decrease in inflammation and are known to be beneficial to cardiovascular health and other conditions related to the metabolic syndrome in humans. Observations included: • Increased metabolism of unsaturated fatty acids • Increased metabolism of arachidonic acid • Increased metabolism of cofactors and vitamins • Increased lysine degradation • Increased glycolysis and gluconeogenesis • Increased phosphatidylinositol signaling • Decreased arginine and ornithine metabolism Below Changes from Phylum à Family à Genus Level
The effect of a small molecule oral TAS2R agonist (DA) was investigated on microbial populations in a nonalcoholic steatohepatitis (NASH) mouse model. Two groups of 4-week-old male C57BL/6 mice (20/group) were fed Amylin Liver NASH (AMLN) diet and received daily doses of ARD-101 (30 mg/mL in water) or vehicle (water) via intragastric gavage. DNA was isolated from fecal samples collected at week 0 and 4, and microbial ecology was evaluated using bTEFAP (bacterial tag-encoded FLX amplicon pyrosequencing). Operational taxonomic units were classified using BLAST against a curated NCBI database. Diversity within specific ecosystems and microbial community structures was analyzed with Qiime 2. Differences were determined by repeated measures ANOVA and post hoc pairwise comparisons using Tukey's test. Taxonomic classification data were evaluated with a dual hierarchal dendrogram.

[3] = tested on: leptin-deficient (ob/ob) mice; assay: Denatonium acetate on body weight in leptin-deficient (ob/ob) mice (Example 1); type: in vivo
Procedure: This example describes an in vivo study of denatonium acetate on body weight in leptin-deficient (ob/ob) mice. Adult leptin-deficient mice (homozygote, ob/ob mice) fed with high-fat diet. There was a vehicle control group (15 mice) that were treated with distilled water by gavage BID. […] Body weights and body weight changes were determined at days 1, 3, 7, 10, 14, 21, 24 and 28. Food intake was determined on days 3, 7, 10, 14, 17, 21, […] and 28. On day 28 blood samples were taken for cytokine analysis, HbA1c, HDL, LDL, insulin, and bile acids.

diet-induced (DIO) mice = assay: Body weight study in diet-induced (DIO) mice (Example 9); type: in vivo, C57BL/6NTac mice; conditions: DA 92.4 mg/kg gavage BID, vs vehicle
[4] = high-dose DA, no significant difference
[5] = AMLN diet mice, daily gavage, week 4, DA vs vehicle
[6] = treatment at 4 weeks versus baseline and control
[7] = 23.1 mg/kg BID gavage, vs vehicle
[8] = 23.1 mg/kg BID gavage, vs vehicle, no statistically significant difference

**Q.** What does the source list for `CC(=O)[O-].CC[N+](CC)(CC(=O)Nc1c(C)cccc1C)Cc1ccccc1` [DA, denatonium acetate]?
**A.** Body weight at day 10 ([1]; 69.3 mg/kg BID, vs vehicle): significant effect against DSS-induced body weight loss; Combined fecal score during the study period ([1]; DA treatment): significant main effect; Fecal consistency score during the study period ([1]; DA treatment): significant main effect; Fecal occult blood scores during the study period ([1]; DA treatment): significant main effect; Colon length at day 10 [1, 4]: could counteract DSS-induced decrease; Colon weight at day 10 [1, 4]: could counteract DSS-induced decrease; Spleen weight at day 10 ([1]; high-dose DA, no significant effect): trend to counteract DSS-induced spleen weight loss; Microbiome pathways for biosynthesis of unsaturated fatty acids ([2]; 4-week DA treatment): significant enrichment; Microbiome pathways for glycolysis and gluconeogenesis ([2]; 4-week DA treatment): significant enrichment; Microbiome pathways for lysine degradation ([2]; 4-week DA treatment): significant enrichment; Microbiome pathways for metabolism of arachidonic acid ([2]; 4-week DA treatment): significant enrichment; Microbiome pathways for metabolism of cofactors and vitamins ([2]; 4-week DA treatment): significant enrichment; Microbiome phosphatidylinositol signaling ([2]; 4-week DA treatment): significant enrichment; Microbiome signaling for arginine and ornithine metabolism ([2]; 4-week DA treatment): significantly decreased; SCFAs in feces ([2]; AMLN diet mice, DA treatment): mitigated the diet-induced decrease; Proteobacteria (phylum) in fecal microbiome ([2]; AMLN diet mice, daily gavage (30 mg/mL in water), week 4, DA vs vehicle): significant increases; Cyanobacteria (phylum) in fecal microbiome [2, 5]: significant increases; Deferribacteres (phylum) in fecal microbiome [2, 5]: significant decreases; Firmicutes (phylum) in fecal microbiome [2, 5]: significant decreases; Spirochetes (phylum) in fecal microbiome [2, 5]: significant decreases; Verrucomicrobia (phylum) in fecal microbiome [2, 5]: significant increases; Diversity within ecosystems and microbial communities ([2]; DA versus vehicle group at week 4, p<0.05): significantly less diversity; Barnesiella (genus) in microbiome [2, 6]: Significantly Decreased; Brenneria (genus) in microbiome [2, 6]: Significantly Increased; Candidatus soleaferrea (genus) in microbiome [2, 6]: Significantly Decreased; Clostridium (genus) in microbiome [2, 6]: Significantly Decreased; Dehalobacterium (genus) in microbiome [2, 6]: Significantly Decreased; Dorea (genus) in microbiome [2, 6]: Significantly Decreased; Erysipelatoclostridium (genus) in microbiome [2, 6]: Significantly Increased; Escherichia (genus) in microbiome [2, 6]: Significantly Increased; Flavonifractor (genus) in microbiome [2, 6]: Significantly Decreased; Lachnoclostridium (genus) in microbiome [2, 6]: Significantly Decreased; Oscillibacter (genus) in microbiome [2, 6]: Significantly Decreased; Oscillospira (genus) in microbiome [2, 6]: Significantly Decreased; Parabacteroides (genus) in microbiome [2, 6]: Significantly Increased; Peptoclostridium (genus) in microbiome [2, 6]: Significantly Increased; Shigella (genus) in microbiome [2, 6]: Significantly Increased; Sutterella (genus) in microbiome [2, 6]: Significantly Increased; Bacteroidetes (phylum) in microbiome ([2]; week 4, not marked as significant): decreased; Blood HDL level at day 28 [3, 7]: statistically significant decrease; Blood HbA1c levels at day 28 [3, 7]: no statistically significant difference; Blood LDL cholesterol levels at day 28 [3, 7]: no statistically significant difference; Blood bile acid levels at day 28 [3, 7]: no statistically significant difference; Blood insulin levels at day 28 [3, 7]: no statistically significant difference; Blood total cholesterol level (LDL plus HDL) at day 28 [3, 7]: almost significant decrease; Body weight change at day 28 [3, 7]: no statistically significant difference; Cumulative food consumption over 28 days [3, 7]: no statistically significant difference; Fasting blood glucose level at day 28 [3, 7]: no statistically significant difference; GM-CSF in blood at day 28 [3, 7]: significant decreases; IFNγ in blood at day 28 [3, 7]: significant decreases; IL-5 in blood at day 28 [3, 7]: significant decreases; IL-10 in blood at day 28 [3, 7]: significant decreases; IL-12 in blood at day 28 [3, 7]: significant decreases; KC/CXCL1 in blood at day 28 [3, 7]: significant decreases; M-CSF in blood at day 28 [3, 7]: significant decreases; Change in granulocyte number, pre-dose to day 28 [3, 8]: trend of increasing change; Change in lymphocyte and white blood cell numbers and percentage, pre-dose to day 28 [3, 8]: trend of increasing change; Change in monocyte number and percentage, pre-dose to day 28 [3, 8]: trend of increasing change; Average daily individual food intake ([3]; 28 days, DA vs vehicle): no difference; Body weight after treatment for 28 days ([3]; compared to vehicle-treated controls): noticeable body weight decrease; Daily food intake at Day 14 (diet-induced (DIO) mice): significantly reduced
